The species entered for one assay is Canis familiaris. Briefly: Evaluated for ADP-induced antiaggregation of dog platelets. It is filed as functional. The settings on record: Canis lupus familiaris.
The species entered for assay [1] is Cavia porcellus. The experiment in a line: Effective dose for ex vivo inhibition of platelet aggregation for four hours in guinea pigs. It is filed as functional, organism-based.
The species entered for assay [2] is Cavia porcellus. Briefly: Evaluated for ADP-induced antiaggregation of guinea pig platelets. It is filed as functional.
A further assay addresses Prostacyclin receptor (Homo sapiens, UniProt P43119). The experiment in a line: Displacement of [3H]iloprost from Prostaglandin I2 receptor of human platelets.
Another assay is filed under the species Homo sapiens. Briefly: Inhibitory activity against ADP-induced platelet aggregation using human platelet rich plasma at a concentration of 4 uM by functional assay.

Each structure is given as a SMILES string. pIC50: −log10 of the molar value.

Chain of Prostacyclin receptor (P43119 whole entry): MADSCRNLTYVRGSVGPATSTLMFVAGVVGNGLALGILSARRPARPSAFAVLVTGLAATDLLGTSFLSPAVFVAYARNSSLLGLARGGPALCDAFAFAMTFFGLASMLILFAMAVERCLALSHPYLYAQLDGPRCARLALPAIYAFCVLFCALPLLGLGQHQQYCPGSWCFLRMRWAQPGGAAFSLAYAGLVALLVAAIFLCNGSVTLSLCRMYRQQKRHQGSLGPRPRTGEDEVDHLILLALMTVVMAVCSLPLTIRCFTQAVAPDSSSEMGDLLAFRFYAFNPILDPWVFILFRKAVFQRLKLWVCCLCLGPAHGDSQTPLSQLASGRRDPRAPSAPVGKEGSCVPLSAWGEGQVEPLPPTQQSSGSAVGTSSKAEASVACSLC

The term pIC50 denotes the negative decadic logarithm of the IC50, by convention in mol/L. A high value points to a small IC50. Turning to `CCC/C(CC1CCc2c(cccc2OCC(=O)O)C1)=N\OC(c1ccccc1)c1ccccc1` (configuration not stated) [AP-227], the pIC50 is 5.14 in the assay listed under Canis familiaris, 5.72 in the assay filed under Cavia porcellus [2] and 6.82 at Prostacyclin receptor. The EC50 in the assay listed under Cavia porcellus [1] turned out to be 0.82 mg/kg. Regarding `C/C(CC1CCc2c(cccc2OCC(=O)O)C1)=N\OCc1ccccc1` (configuration not stated), the negative-log IC50 (pIC50) in the assay filed under Homo sapiens was 4.92; at Prostacyclin receptor, 5.28.

On to `CCC/C(CCC1CCCc2c(OCC(=O)O)cccc21)=N\OC(c1ccccc1)c1ccccc1` (configuration not stated), for which the pIC50 in the assay listed under Homo sapiens is 5.62; at Prostacyclin receptor, 5.68. Take `C/C(C[C@@H]1CCc2c(cccc2OCC(=O)O)C1)=N\OC(c1ccccc1)c1ccccc1`: the negative-log IC50 (pIC50) in the assay filed under Homo sapiens is 5.72; at Prostacyclin receptor it was 5.66.

As to `CCCCC[C@H](O)/C=C/[C@H]1[C@H](O)CC(=O)[C@@H]1CCCCCCC(=O)O` [ALPROSTADIL], the results for the negative logarithm of the IC50 (pIC50) in the assay listed under Homo sapiens and on Prostacyclin receptor were 7.15 and 5.85, respectively. Compound `C/C(CC1CCc2c(cccc2OCC(=O)O)C1)=N\OC(c1ccccc1)c1ccccc1` (configuration not stated) gave a negative logarithm of the IC50 (pIC50) at Prostacyclin receptor of 6.42. Turning to `C/C(C[C@H]1CCc2c(cccc2OCC(=O)O)C1)=N\OC(c1ccccc1)c1ccccc1`, the pIC50 on Prostacyclin receptor is 6.66. On to `CC/C(CC1CCc2c(cccc2OCC(=O)O)C1)=N\OC(c1ccccc1)c1ccccc1` (configuration not stated), for which the pIC50 in the assay filed under Homo sapiens was 7.15; on Prostacyclin receptor it was 6.82. In the assay filed under Homo sapiens, `CCC/C(C[C@H]1CCc2c(cccc2OCC(=O)O)C1)=N\OC(c1ccccc1)c1ccccc1` gave a pIC50 of 6.89.

(Values after ChEMBL document CHEMBL1152018, “Molecular design of novel PGI2 agonists without PG skeleton. II” (Bioorg Med Chem Lett, 1995).)
